Experimental data taken from PMC10534486 (Pharmaceutics, 2023).
Like-named read-outs stand apart in the source and are kept apart here.

How the values were obtained:
[1] = in vitro; format: in vitro ADME, rat
Procedure: […]. […] […].
The binding percentage (%) was calculated using the equation: Binding percentage %=CT−CF/CT×100 where CF represents the concentration of free drug measured in the ultrafiltrate and CT is the total drug concentration introduced into the ultrafiltration system before centrifugation.

[2] = Pharmacokinetics after oral administration of 20 mg/kg to CON and PHL rats; format: in vivo, Sprague–Dawley rats; details: for AUC(0-inf) / Cmax / CL renal / half-life / k el / bioavailability: po, 20 mg/kg; for CL renal: read-out: CLR (time-averaged renal clearance); for half-life: read-out: Terminal half-life; for k el: read-out: k (elimination rate constant) (converted); for bioavailability: read-out: F (absolute oral bioavailability)
Procedure: The rats were randomly assigned to one of two experimental groups: a control (CON) and a P-407-induced hyperlipidemia (PHL) group. P-407 was dissolved in cold sterile 0.9% NaCl-injectable solution and stored in a refrigerator for at least 6 h to ensure complete dissolution. Rats in the PHL group received a single intraperitoneal injection of 1 g/kg P-407, whereas rats in the CON group received a single intraperitoneal injection of an equal volume of 0.9% NaCl. Hyperlipidemia was defined as a total cholesterol concentration higher than 220 mg/dL or a low-density lipoprotein (LDL) cholesterol concentration higher than 160 mg/dL [29, 30].
Rats were anesthetized with ketamine (100 mg/kg) prior to surgical procedures. […] Prior to oral investigation, the rats were fasted overnight and only the carotid artery was cannulated for blood collection. The rats were allowed to recover for 3–4 h after surgical procedures prior to the performance of subsequent experiments.
. Blood samples (0.12 mL) were obtained at 0 (prior to drug administration), 1, 5, 15, 30, 45, 60, 90, 120, 180, and 240 min through the carotid artery. […]. Blood samples (0.12 mL) were collected through the carotid artery at 0 (prior to drug administration), 5, 15, 30, 45, 60, 90, 120, 180, 240, 360, and 480 min. All blood samples were centrifuged for 1 min at 8000× g and plasma (50 μL) samples were collected. After the blood samples were obtained, 0.3 mL of heparinized 0.9% NaCl solution (20 IU/mL) was immediately injected into the carotid artery to prevent blood clotting.
At 24 h, the rats were sacrificed and the abdomen of each was opened. The entire gastrointestinal tract of each rat was excised, cut into small pieces, and immersed in a beaker containing 50 mL of methanol. After evenly mixing the contents in the beaker, a 50 μL aliquot of each supernatant was withdrawn. The volumes of urine samples collected for 24 h after drug administration were measured and two 100 μL aliquots of each were collected.
The following pharmacokinetic parameters were determined by non-compartmental analysis (WinNonlin, Pharsight Co., Mountain View, CA, USA) using standard methods: terminal half-life, time-averaged total body (CL), renal (CLR), and nonrenal (CLNR) clearances, apparent volume of distribution at steady state (Vss), area under the plasma concentration–time curve from zero to infinity (AUC0–∞), and elimination rate constant (k). AUC0–∞ was calculated using the trapezoidal rule extrapolation method, whereas the maximum plasma concentration (Cmax) and time required to reach Cmax (Tmax) were determined directly from the plasma concentration–time curves. (R3-3) The absorption rate constants (ka) for oral administration were also estimated under the assumption of one-compartment model and first-order elimination.

[3] = Distribution of tofacitinib in tissues 30 min after intravenous administration; format: in vivo; details: Sprague-Dawley, rat; all tissues of CON and PHL rats, 30 min after intravenous 10 mg/kg; read-out: Tissue-to-plasma (T/P) ratios
Procedure: . Tissue samples, including fat, brain, kidney, heart, liver, large intestine, mesentery, lung, small intestine, muscle, stomach, and spleen, were removed from each rat, rinsed in phosphate-buffered saline (PBS, pH 7.4), and blotted dry with paper towels to remove any remaining blood. Approximately 1 g of each tissue was added to 4 volumes of homogenizing buffer, followed by homogenization (IKA Labortechnik, Staufen, Germany) and centrifugation at 8000× g for 10 min.

[4] = for CLR estimated from the free fraction in plasma: intravenous
[5] = cited from earlier work
[6] = tested on: P-gp; parameters: method as in PMID 24704892; details: cited from earlier work
[7] = in vivo; details: Sprague-Dawley, rat, plasma, iv, 10 mg/kg; for clearance: CL (time-averaged total body clearance); for CL renal: CLR (time-averaged renal clearance); for MRT: MRT (mean residence time); for half-life: Terminal half-life; for Vd: Vss (apparent volume of distribution at steady state); for k el: k (elimination rate constant)
[8] = Vmax, Km and CLint for disappearance of tofacitinib in hepatic microsomes
[9] = Vmax, Km and CLint for disappearance of tofacitinib in intestinal microsomes
[10] = Sprague-Dawley, rat, plasma, CON rats (n = 6)
[11] = Sprague-Dawley, rat, plasma, PHL rats (n = 7)
[12] = oral 20 mg/kg, CON rats (n = 6)
[13] = oral 20 mg/kg, PHL rats (n = 7)

With `C[C@@H]1CCN(C(=O)CC#N)C[C@@H]1N(C)c1ncnc2[nH]ccc12` [tofacitinib, Tofacitinib] as the compound, how does the recovery at 30 min, 5 µg/mL ([1]; pH 7.4) read?
The recovery at 30 min, 5 µg/mL was 100 ± 2.84%.

What about the “Free (unbound to plasma proteins) fraction in plasma” value ([1]; rat, plasma, 30 min, 5 µg/mL) of the same compound?
The value was 40.8%.

And the fraction unbound at 30 min, 5 µg/mL ([1]; rat, plasma, Free (unbound to plasma proteins) fraction in plasma)?
The fraction unbound at 30 min, 5 µg/mL was 0.667.

And the fraction unbound at 30 min, 5 µg/mL ([1]; rat, plasma, Plasma protein binding)?
The fraction unbound at 30 min, 5 µg/mL was 0.408.

And the AUC(0-inf) [2, 10]?
The AUC(0-inf) was 4800 ng·h/mL.

What about the Cmax [2, 10] of the same compound?
Its Cmax is 2960 ± 643 ng/mL.

What about the CL renal [2, 10] of the same compound?
The CL renal was 3.52 ± 1.8 mL/min/kg.

What about the half-life [2, 10] of the same compound?
The half-life was 62.1 ± 16.7 min.

What about the k el [2, 10] of the same compound?
The k el was 0.000197 s⁻¹.

And the bioavailability ([2]; Sprague-Dawley, rat, plasma, CON rats)?
The bioavailability was 53.7%.

What about the AUC(0-inf) [2, 11] of the same compound?
Its AUC(0-inf) is 7950 ng·h/mL.

And the Cmax [2, 11]?
Its Cmax is 4750 ± 1180 ng/mL.

And the CL renal [2, 11]?
The CL renal was 1.28 ± 0.786 mL/min/kg.

What about the half-life [2, 11] of the same compound?
Its half-life is 84.3 ± 21.2 min.

And the k el [2, 11]?
Its k el is 0.000145 s⁻¹.

And the bioavailability ([2]; Sprague-Dawley, rat, plasma, PHL rats)?
The bioavailability was 51.4%.

And the Tmax ([2]; Sprague-Dawley, rat, plasma, oral 20 mg/kg, PHL rats (n = 7))?
The Tmax was 30 min.

And the “AUC0–∞ higher in PHL than in CON rats” value ([2]; oral 20 mg/kg)?
The value was 65.6%.

What about the “CLR lower in PHL than in CON rats” value ([2]; oral 20 mg/kg) of the same compound?
The value was 63.6%.

What about the “Cmax higher in PHL than in CON rats” value ([2]; oral 20 mg/kg) of the same compound?
Its value is 60.5%.

What about the “Ae0–24 h (drug excreted unchanged in urine for 24 h)” value [2, 12] of the same compound?
The value was 4.90 ± 1.95 % of dose.

What about the “ka (absorption rate constant)” value [2, 12] of the same compound?
Its value is 0.127 ± 0.0389 min⁻¹.

And the “Ae0–24 h (drug excreted unchanged in urine for 24 h)” value [2, 13]?
The value was 3.02 ± 1.87 % of dose.

What about the “ka (absorption rate constant)” value [2, 13] of the same compound?
Its value is 0.156 ± 0.0885 min⁻¹.

What about the “Time after dosing at which drug was detected in plasma” value ([2]; oral 20 mg/kg, all CON and PHL rats) of the same compound?
The value was 5 min.

And the Kp at 30 min [3]?
The Kp at 30 min was less than 1.

And the “AUC0–∞ higher in PHL than in CON rats” value ([4]; intravenous 10 mg/kg)?
The value was 73.5%.

And the “CL slower in PHL than in CON rats” value ([4]; intravenous 10 mg/kg)?
Its value is 43.0%.

And the “Ae0–24 h (drug excreted unchanged in urine for 24 h)” value ([4]; intravenous 10 mg/kg, CON rats (n = 7))?
The value was 4.06 ± 1.89 % of dose.

What about the “Ae0–24 h (drug excreted unchanged in urine for 24 h)” value ([4]; intravenous 10 mg/kg, PHL rats (n = 6)) of the same compound?
Its value is 5.76 ± 2.53 % of dose.

And the “CLR estimated from the free fraction in plasma” value ([4]; CON rats)?
The value was 4.66 mL/min/kg.

And the “CLR estimated from the free fraction in plasma” value ([4]; PHL rats)?
Its value is 6.05 mL/min/kg.

And the Terminal half-life [5]?
Its Terminal half-life is “approximately 3.3 h”.

And the P-gp substrate status [6]?
Its P-gp substrate status is “substrate of P-gp”.

What about the AUC(0-inf) ([7]; AUC (AUC0–∞), CON rats (n = 7)) of the same compound?
The AUC(0-inf) was 4470 ng·h/mL.

And the clearance ([7]; CON rats (n = 7))?
Its clearance is 37.9 ± 4.85 mL/min/kg.

And the clearance ([7]; PHL rats (n = 6))?
Its clearance is 21.6 ± 1.13 mL/min/kg.

What about the CL renal ([7]; CON rats (n = 7)) of the same compound?
Its CL renal is 3.11 ± 1.58 mL/min/kg.

And the CL renal ([7]; PHL rats (n = 6))?
Its CL renal is 2.47 ± 1.1 mL/min/kg.

And the MRT ([7]; CON rats (n = 7))?
The MRT was 22.6 min.

And the MRT ([7]; PHL rats (n = 6))?
Its MRT is 22.7 min.

What about the half-life ([7]; CON rats (n = 7)) of the same compound?
The half-life was 29.6 ± 4.55 min.

And the half-life ([7]; PHL rats (n = 6))?
Its half-life is 34.5 ± 2.29 min.

And the Vd ([7]; CON rats (n = 7))?
The Vd was 0.847 ± 0.191 L/kg.

And the Vd ([7]; PHL rats (n = 6))?
The Vd was 0.49 ± 0.136 L/kg.

And the k el ([7]; CON rats (n = 7))?
The k el was 0.000398 s⁻¹.

And the k el ([7]; PHL rats (n = 6))?
Its k el is 0.000337 s⁻¹.

And the “CLint lower in PHL than in CON rats” value [8]?
Its value is 36.9%.

What about the “Km, PHL versus CON rats” value [8] of the same compound?
Its value is “did not differ significantly”.

What about the “CLint lower in PHL than in CON rats” value [9] of the same compound?
The value was 51.3%.

What about the “Km, PHL versus CON rats” value [9] of the same compound?
Its value is “comparable”.
